Several values for one entry are separate records, joined by “and”; a condition that tells them apart may be missing. Identical values can stand only once. Activity calls are given as the source filed them.
Columns and labels:
Phospholipase D2 = Phospholipase D2 (Homo sapiens, UniProt O14939); assay: cellular phospholipase D2 inhibition IC50 – cell-based, dose response (AID 602147); assay type: functional;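 note: cellular assay in HEK293 cells overexpressing GFP-tagged PLD2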
Phospholipase D1 = Phospholipase D1 (Homo sapiens, UniProt Q13393); assay: cellular phospholipase D1 inhibition IC50 – cell-based, dose response (AID 602151); assay type: functional;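 note: cellular PLD1 assay in Calu-1 cells stimulated with PMA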
Cytochrome P450 2C19 = Cytochrome P450 2C19 (Homo sapiens, UniProt P33261); assay: Cytochrome panel assay with activity outcomes. Panel member name: p450-cyp2c19 Compounds with AC50 equal or less than 10 uM are considered active; assay type: functional; conditions: read-out: AC50
Cytochrome P450 2D6 = Cytochrome P450 2D6 (Homo sapiens, UniProt P10635);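 note: CYP2D6 member of a cytochrome P450 panel assay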
[1] = target: Voltage-gated inwardly rectifying potassium channel KCNH2 (Homo sapiens, UniProt Q12809); conditions: Potency;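 note: confirmatory quantitative high-throughput screen measuring inhibition of hERG channel activity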
[2] = target: Serine/threonine-protein phosphatase (Candida dubliniensis (strain CD36 / CBS 7987 / NCPF 3949 / NRRLY-17841) (Yeast), UniProt B9W6M3); assay: blockers of CaCl2-induced CDRE-lacZ signaling – S. cerevisiae, luminescence, secondary, dose response (AID 2388); assay type: functional, cell-based;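 note: yeast reporter cells carrying a calcineurin-responsive lacZ construct stimulated with calcium chloride; luminescent beta-galactosidase reporter signal in whole cells rather than isolated phosphatase activity; potency for inhibition where a drop in reporter signal means calcineurin blockade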
[3] = fluconazole-exposed Candida albicans growth modulators – fluorescence, retest, confirmation (AID 2467); assay type: functional, cell-based
Cytochrome P450 3A4 = Cytochrome P450 3A4 (Homo sapiens, UniProt P08684); conditions: Potency;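 note: confirmatory qHTS run detecting inhibitors and substrates of CYP3A4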
[4] = target: ATP-dependent molecular chaperone HSP82 (Candida albicans (strain WO-1) (Yeast), UniProt C4YTQ8); assay: steroid-induced GRE reporter decrease in yeast – S. cerevisiae, luminescence, Hsp90 inhibitor project, dose response (AID 2400); assay type: functional, cell-based;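 note: beta-galactosidase luminescence from glucocorticoid response element reporter as proxy for Hsp90 function; inhibitor potency where signal loss means Hsp90 inhibition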
Chain of ATP-dependent molecular chaperone HSP82 (C4YTQ8 whole entry): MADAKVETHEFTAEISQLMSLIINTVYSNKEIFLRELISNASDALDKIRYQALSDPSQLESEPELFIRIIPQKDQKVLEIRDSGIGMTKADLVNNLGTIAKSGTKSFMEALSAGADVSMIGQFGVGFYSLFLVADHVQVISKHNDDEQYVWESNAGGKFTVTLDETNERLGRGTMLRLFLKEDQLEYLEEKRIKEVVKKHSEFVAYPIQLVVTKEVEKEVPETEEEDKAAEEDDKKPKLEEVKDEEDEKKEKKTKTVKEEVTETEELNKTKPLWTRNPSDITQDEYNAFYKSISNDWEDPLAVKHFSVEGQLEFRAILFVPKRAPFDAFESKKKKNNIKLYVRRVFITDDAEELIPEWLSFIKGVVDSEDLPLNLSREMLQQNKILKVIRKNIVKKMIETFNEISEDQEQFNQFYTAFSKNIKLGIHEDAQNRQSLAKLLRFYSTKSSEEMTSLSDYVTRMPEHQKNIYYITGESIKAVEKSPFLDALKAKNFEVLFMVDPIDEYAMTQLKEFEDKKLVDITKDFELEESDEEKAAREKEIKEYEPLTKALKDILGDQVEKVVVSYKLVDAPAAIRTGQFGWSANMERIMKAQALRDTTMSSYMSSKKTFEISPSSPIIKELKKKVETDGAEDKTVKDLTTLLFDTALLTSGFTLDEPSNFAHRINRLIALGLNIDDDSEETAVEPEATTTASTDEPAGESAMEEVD

Chain of Phospholipase D1 (Q13393 whole entry): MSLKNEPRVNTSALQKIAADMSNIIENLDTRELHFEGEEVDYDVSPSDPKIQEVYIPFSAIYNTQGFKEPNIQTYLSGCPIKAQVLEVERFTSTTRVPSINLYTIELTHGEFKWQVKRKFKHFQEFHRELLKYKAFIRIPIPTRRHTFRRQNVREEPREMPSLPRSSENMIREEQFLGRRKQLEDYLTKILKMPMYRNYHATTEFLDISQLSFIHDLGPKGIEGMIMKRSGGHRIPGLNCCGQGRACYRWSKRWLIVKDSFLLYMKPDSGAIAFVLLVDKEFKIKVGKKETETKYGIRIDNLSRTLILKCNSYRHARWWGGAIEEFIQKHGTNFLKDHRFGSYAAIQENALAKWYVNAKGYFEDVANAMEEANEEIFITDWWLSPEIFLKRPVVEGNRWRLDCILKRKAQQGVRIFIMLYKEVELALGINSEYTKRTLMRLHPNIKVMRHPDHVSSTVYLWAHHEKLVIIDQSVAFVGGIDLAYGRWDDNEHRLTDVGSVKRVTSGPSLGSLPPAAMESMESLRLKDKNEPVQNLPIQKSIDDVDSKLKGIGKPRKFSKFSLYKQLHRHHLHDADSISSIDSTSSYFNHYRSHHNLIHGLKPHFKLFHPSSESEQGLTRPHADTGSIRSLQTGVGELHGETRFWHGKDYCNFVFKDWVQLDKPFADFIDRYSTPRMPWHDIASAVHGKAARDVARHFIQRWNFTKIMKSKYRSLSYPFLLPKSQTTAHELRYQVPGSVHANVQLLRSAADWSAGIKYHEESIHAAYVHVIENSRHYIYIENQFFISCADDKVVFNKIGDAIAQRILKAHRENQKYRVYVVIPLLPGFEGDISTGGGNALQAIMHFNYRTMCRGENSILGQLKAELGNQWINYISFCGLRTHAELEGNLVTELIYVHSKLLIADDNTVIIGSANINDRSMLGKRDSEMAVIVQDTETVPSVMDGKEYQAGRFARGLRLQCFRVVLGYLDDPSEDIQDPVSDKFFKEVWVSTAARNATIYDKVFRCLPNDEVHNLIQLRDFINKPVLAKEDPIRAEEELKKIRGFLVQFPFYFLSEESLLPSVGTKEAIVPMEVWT
Chain of Phospholipase D2 (O14939 whole entry): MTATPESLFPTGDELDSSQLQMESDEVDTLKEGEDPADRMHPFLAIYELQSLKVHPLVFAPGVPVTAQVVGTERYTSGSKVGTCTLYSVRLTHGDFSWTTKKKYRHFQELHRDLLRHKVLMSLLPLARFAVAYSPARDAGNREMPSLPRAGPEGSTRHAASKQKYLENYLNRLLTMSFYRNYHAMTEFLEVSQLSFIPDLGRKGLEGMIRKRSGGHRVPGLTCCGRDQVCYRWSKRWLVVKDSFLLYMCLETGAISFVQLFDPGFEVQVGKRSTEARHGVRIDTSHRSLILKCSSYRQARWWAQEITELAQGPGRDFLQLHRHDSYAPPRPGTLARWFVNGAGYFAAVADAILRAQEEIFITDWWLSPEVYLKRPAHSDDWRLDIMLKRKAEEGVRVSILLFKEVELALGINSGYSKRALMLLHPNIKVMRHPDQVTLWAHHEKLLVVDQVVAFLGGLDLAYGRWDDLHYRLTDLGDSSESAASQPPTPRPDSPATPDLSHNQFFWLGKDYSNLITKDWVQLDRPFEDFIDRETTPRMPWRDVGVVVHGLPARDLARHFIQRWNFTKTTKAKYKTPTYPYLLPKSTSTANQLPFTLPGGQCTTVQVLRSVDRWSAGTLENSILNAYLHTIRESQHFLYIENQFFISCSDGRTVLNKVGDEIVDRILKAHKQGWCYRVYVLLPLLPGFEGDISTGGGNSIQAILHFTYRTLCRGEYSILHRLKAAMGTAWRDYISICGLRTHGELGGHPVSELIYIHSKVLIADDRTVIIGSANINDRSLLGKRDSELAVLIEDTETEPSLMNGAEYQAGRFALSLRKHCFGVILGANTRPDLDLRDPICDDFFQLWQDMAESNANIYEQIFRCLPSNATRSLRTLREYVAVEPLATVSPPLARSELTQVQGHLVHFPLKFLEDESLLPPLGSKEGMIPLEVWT
Chain of Serine/threonine-protein phosphatase (B9W6M3 whole entry): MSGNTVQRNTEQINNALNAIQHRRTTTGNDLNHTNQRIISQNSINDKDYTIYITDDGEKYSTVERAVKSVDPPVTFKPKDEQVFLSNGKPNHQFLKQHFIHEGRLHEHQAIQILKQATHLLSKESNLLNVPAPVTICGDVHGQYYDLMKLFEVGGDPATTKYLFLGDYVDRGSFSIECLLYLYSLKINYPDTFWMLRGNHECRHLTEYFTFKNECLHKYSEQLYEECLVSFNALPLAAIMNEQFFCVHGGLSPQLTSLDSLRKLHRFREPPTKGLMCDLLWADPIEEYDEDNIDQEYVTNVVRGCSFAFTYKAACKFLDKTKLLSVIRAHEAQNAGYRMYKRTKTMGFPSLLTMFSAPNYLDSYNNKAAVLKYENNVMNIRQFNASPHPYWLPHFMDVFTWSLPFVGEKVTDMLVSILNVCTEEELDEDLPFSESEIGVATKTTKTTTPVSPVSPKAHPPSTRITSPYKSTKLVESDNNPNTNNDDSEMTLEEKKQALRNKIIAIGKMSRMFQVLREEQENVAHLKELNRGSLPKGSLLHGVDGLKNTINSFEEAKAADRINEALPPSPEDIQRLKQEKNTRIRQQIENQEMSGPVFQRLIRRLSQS
Chain of Cytochrome P450 3A4 (P08684 whole entry): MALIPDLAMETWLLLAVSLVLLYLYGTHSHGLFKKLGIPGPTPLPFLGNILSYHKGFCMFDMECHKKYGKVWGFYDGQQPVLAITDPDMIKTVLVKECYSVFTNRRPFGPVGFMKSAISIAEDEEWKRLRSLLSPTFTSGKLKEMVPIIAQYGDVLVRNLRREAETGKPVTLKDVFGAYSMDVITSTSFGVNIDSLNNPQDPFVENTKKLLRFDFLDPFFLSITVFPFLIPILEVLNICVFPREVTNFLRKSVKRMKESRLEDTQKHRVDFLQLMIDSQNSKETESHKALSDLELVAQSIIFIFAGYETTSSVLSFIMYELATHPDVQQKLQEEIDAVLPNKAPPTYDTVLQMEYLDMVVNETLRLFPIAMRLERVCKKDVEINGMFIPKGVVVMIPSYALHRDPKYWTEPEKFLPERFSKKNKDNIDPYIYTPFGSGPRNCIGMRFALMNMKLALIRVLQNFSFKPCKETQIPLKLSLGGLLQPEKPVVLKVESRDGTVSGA
Chain of Voltage-gated inwardly rectifying potassium channel KCNH2 (Q12809 whole entry): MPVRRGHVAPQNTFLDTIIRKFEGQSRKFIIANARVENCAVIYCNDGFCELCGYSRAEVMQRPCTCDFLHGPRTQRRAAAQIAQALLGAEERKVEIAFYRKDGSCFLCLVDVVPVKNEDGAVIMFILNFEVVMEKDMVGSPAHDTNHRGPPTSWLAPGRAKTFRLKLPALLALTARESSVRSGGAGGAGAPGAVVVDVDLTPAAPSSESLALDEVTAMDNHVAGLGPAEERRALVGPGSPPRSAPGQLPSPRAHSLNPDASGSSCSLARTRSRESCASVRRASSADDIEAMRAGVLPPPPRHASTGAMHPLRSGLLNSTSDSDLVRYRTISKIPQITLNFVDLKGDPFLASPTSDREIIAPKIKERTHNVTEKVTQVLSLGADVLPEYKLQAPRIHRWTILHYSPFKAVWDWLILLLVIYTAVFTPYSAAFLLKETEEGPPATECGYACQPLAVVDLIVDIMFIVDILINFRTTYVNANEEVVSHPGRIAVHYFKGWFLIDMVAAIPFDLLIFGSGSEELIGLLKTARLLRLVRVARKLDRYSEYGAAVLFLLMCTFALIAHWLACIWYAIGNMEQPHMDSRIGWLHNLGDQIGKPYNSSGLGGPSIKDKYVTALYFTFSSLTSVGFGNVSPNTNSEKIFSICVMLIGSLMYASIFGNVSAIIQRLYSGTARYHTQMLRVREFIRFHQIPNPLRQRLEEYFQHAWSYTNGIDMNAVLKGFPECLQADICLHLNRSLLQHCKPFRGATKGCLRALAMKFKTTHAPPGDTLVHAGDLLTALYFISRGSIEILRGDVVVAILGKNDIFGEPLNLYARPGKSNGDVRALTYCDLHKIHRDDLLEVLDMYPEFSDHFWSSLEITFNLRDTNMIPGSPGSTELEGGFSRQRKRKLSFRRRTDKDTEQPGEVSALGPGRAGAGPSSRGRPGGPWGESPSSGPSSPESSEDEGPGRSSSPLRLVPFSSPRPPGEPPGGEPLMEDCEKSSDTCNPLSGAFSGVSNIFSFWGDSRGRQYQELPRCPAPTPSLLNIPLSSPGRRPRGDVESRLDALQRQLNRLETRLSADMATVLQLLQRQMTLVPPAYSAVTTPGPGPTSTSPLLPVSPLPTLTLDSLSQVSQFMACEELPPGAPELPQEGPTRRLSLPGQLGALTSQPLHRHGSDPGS

SMILES: C[C@@H](CN1CCC(n2c(=O)[nH]c3cc(I)ccc32)CC1)NC(=O)C1CC1c1ccccc1 (stereo partly specified)
- IC50 (Phospholipase D2): 6.5 µM (active)
- IC50 (Phospholipase D1): 0.021 µM (active)

SMILES: CC(C)[C@@H](CN1CCC2(CC1)C(=O)NCN2c1ccccc1)NC(=O)c1ccc2ccccc2c1
- IC50 (Phospholipase D2): 1.5 µM (active)
- IC50 (Phospholipase D1): 0.14 µM (active)

SMILES: O=c1oc(Cl)c(Cl)c2ccccc12
- AC50 (Cytochrome P450 2C19): 25.1 µM (inconclusive)
- AC50 (Cytochrome P450 2D6): 31.6 µM (inconclusive)
- AC50 [1]: 2.82 µM (inconclusive)

SMILES: C[C@]12CC[C@H](O)C[C@@H]1CC[C@@H]1[C@@H]2CC[C@]2(C)C(=O)CC[C@@H]12 [EPIANDROSTERONE]
- EC50 [2]: > 180 µM (inactive)
- EC50 [3]: 877 nM (active) and 1.15 µM (active)
- AC50 (Cytochrome P450 3A4): 20 µM (inconclusive)
- EC50 [4]: 24.2 µM (active)
